From PMC6851324, “Design and development of stapled transmembrane peptides that disrupt the activity of G-protein–coupled receptor oligomers” (The Journal of Biological Chemistry, 2019)
Where a SMILES comes first, the peptide text is derived from it. Bridges are numbered along the chain shown (N, C = ends). Where no end group is shown, it is not given here. [ ]: non-standard residue; d: D form. S5 = C=CCCC[C@](C)(N)C(=O)O; Nle = CCCC[C@H](N)C(=O)O

What follows are molecules tested against T1, 5-HT2AR–CB1R heteromers (Homo sapiens, UniProt P28223) (assay: NanoBiT BiLC peptide screening assay (LgBiT–CB1R + SmBiT–5-HT2AR)). Conditions: HEK293 cells transiently expressing LgBiT–CB1R and SmBiT–5-HT2AR, preincubated 1 h with 4 μM peptide, luminescence normalized to vehicle, n ≥ 5.
T1 construct: expressed in transfected cells; host or cells: HEK293 (ATCC CRL-1573), transient reverse transfection
Type: cell-based
Procedure: Figure 5. Identification of a small-stapled TM peptide disrupting 5-HT2AR–CB1R heteromers. A, schematic representation of the NanoBiT assay using N-terminally labeled constructs. In B, HEK293 cells transiently expressing the LgBT–CB1R and SmBiT–5-HT2AR complementary pairs were preincubated for 1 h at 37 °C with the indicated peptides (4 μM) or vehicle prior to luminescence recording. Data are mean RLU ± S.E. (error bars) (n ≥ 5) percentage of luminescence normalized to vehicle-treated cells. Statistical significance was evaluated by one-way ANOVA followed by Bonferroni post hoc tests, indicating significant differences over vehicle-treated cells (***, p ≤ 0.001; ****, p ≤ 0.0001) and for peptide 10 over its related peptides (####, p ≤ 0.0001). Peptide 10 potency (C) was evaluated as in A over increasing peptide concentrations (bottom) (n = 3). Alternatively, to assess the kinetics of the peptide 10–driven heteromer disruption (D), prior to the administration of the peptide, the cells were preincubated with substrate, and the luminescence was recorded over the following 30 min. Data are mean RLU ± S.E. (n ≥ 3) percentage of luminescence normalized to vehicle-treated cells.
To assess GPCR protein–protein interactions with the NanoBiT technology, HEK293 cells (50,000 cells/well) were seeded in poly-D-lysine–coated white clear bottom 96-well plates and reverse-transfected (see above) with the plasmids encoding the complementary NanoBiT hemiprotein fragments. For orientation screenings, cells were transfected with two different concentrations (50 and 100 ng/well) of each receptor alone or in combination with the investigated partner (see figure legends) in the presence of empty vector (pcDNA3.1(+)) to normalize the total amount of DNA/well. For studies in the presence of increasing nontagged receptor competitors, 100 ng of each receptor pair (CB1R LgBiT + CB1R SmBiT, 5-HT2AR LgBiT + 5-HT2AR SmBiT, and 5-HT2AR LgBiT + CB1R SmBiT) were co-transfected with increasing concentrations of the different nontagged constructs (from 0 to 300 ng/well), and the total amounts of DNA/well were normalized with empty vector (pcDNA3.1(+)). For the screening of stapled peptides, 50 ng/well of both LgBiT CB1R and SmBiT 5-HT2AR were reverse-transfected as detailed previously. 24 h post- transfection, the cell culture medium was removed, and the cells were starved in FBS-free DMEM for 4 h at 37 °C in a 5% CO2 humidified atmosphere. The cell culture medium was replaced by 100 μl of NanoBiT assay buffer (same as for cAMP measurements), and the plates were pre-equilibrated for 1 h at RT in the dark. When peptide pretreatment was required, peptides were added over this pre-equilibration step, except when studying inhibition kinetics, when the peptides were administered immediately after the baseline luminescence recording. 25 μl/well of a 5× solution of the Nano-Glo® live cell reagent containing the cell-permeable furimazine substrate dissolved in Nano-Glo® LCS dilution buffer were added, and the luminescence was immediately monitored in CLARIOstar® Multimode Plate Reader (BMG Labtech) with no lens (1-s integration time/well for 1 h every minute).
Dose–response curves were fitted using a four-parameter logistic nonlinear regression mode. Peptide stability data were fitted using a nonlinear regression mode for dissociation kinetics. All statistical tests, curve fitting, and graphing were performed using GraphPad Prism 8 (GraphPad Software, La Jolla, CA).

T1 sequence (P28223 2-471, one chain of several): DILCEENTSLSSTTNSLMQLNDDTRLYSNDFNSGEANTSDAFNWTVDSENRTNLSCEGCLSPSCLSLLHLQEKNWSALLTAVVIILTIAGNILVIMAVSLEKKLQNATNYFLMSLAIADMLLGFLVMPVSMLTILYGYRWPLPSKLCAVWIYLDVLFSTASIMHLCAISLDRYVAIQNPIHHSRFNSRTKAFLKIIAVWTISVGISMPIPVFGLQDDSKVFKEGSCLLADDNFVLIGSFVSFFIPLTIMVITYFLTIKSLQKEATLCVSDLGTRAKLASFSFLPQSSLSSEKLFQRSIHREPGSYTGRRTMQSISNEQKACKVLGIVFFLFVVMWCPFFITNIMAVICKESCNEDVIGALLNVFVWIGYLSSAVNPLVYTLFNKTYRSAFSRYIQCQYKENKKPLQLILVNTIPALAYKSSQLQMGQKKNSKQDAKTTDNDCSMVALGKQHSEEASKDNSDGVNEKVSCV

Molecule	effect on NanoBiT luminescence (heteromer disruption)
CCCC[C@H](NC(=O)[C@]1(C)CCC/C=C\CCC[C@](C)(NC(=O)[C@H](Cc2ccccc2)NC(=O)[C@H](CC(C)C)NC(=O)[C@H](CC(C)C)NC(=O)[C@H](CC(C)C)NC(=O)[C@@H](N)C(C)C)C(=O)N[C@@H](C(C)C)C(=O)N[C@@H](Cc2ccc(O)cc2)C(=O)N[C@@H](C)C(=O)N1)C(=O)N[C@@H](Cc1ccc(O)cc1)C(=O)N[C@H](C(=O)N[C@@H](CC(C)C)C(=O)N[C@@H](Cc1c[nH]c2ccccc12)C(N)=O)[C@@H](C)CC [Peptide 8] (H-VLLLF[S5]VYA[S5][Nle]YILW-NH2; staple (Z) 6-10)	not as efficient as compound 10
C=CCCC[C@](C)(NC(=O)[C@H](Cc1ccc(O)cc1)NC(=O)[C@@H](N)C(C)C)C(=O)N[C@@H](Cc1ccc(O)cc1)C(=O)N[C@@H](CCCC)C(=O)N[C@@](C)(CCCC=C)C(=O)N[C@H](C(=O)N[C@@H](CC(C)C)C(=O)N[C@@H](Cc1c[nH]c2ccccc12)C(N)=O)[C@@H](C)CC [Peptide 11] (H-VY[S5]Y[Nle][S5]ILW-NH2)	neither the version lacking the TAT amino acid sequence, compound 9, nor the nonstaple, compound 11, peptides induced any change
ETYLMFWIGVTSVLLLFIVYAYMYILWGRKKRRQRRR [TM5-TAT, reference compound]	decrease in the luminescence readout
GRKKRRQRRRKTLVLILVVLIICWGPLLAIMVY [TM6-TAT, reference compound]	decrease in the luminescence readout
